According to patent publication US10676747B2, “Methods for improving cognitive function via modulation of quinone reductase 2” (Carmel-Haifa University Economic Corp. Ltd., priority 2014, dated 2020):

Legend:
QR2 = target: T1, QR2 (Homo sapiens, UniProt P16083); conditions: literature statement; cited from earlier work
T1 sequence (P16083 1-231): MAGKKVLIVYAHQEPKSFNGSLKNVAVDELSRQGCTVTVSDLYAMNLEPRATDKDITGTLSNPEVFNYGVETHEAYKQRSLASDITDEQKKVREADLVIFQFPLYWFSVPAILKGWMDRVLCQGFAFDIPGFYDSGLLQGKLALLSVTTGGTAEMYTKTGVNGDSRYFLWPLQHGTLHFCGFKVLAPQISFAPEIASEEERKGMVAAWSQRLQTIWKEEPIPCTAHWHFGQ

rats [1] = assay: CTA protocol with NaCl: negative taste memory after QR2 inhibitor injection; assay type: in vivo, rat; conditions: n=8; for AI compared with vehicle-injected group: CTA with NaCl, Fisher's LSD test; for Aversion index (AI): CTA, 0.5% NaCl, LiCl 0.03M, inhibitor 10 mg/kg i.p. one hour before, mean+/-SEM
Experimental: (§1) Subjects—Adult male Wistar Hola rats (Harlan Laboratories, Jerusalem) within a weight range of 200-300 gr (corresponding to an age of 8 to 12 weeks) were used for this study. They were maintained on a 12 hour light/dark cycle and all experiments were carried out during the light cycle. Additionally, the rats had ad libtum access to food and water unless otherwise indicated. The procedures were performed in strict accordance with the University of Haifa regulations and the US National Institutes of Health guidelines (NIH publication number 8023).
(§2) The vehicle—In all of the experiments in which we utilized pharmacological agents they were prepared in physiological saline. Physiological saline was prepared in house by dissolving NaCl in DDW (0.9% w/v). The physiological saline was injected to the controls in all experiments in which the test group(s) was injected with a pharmacological agent. The same volume of the vehicle was injected as the pharmacological agent.
(§3) QR2 inhibitors—We used two inhibitors of QR2 activity, S29434 and S26695, obtained from Pharmacolgie Moleculaire et Cellulaire, Institut de Recherches Servier. The inhibitors were dissolved in dimethyl sulfoxide (DMSO) and then added to physiological saline. The final concentration of dimethyl sulfoxide in the physiological saline was 5%. These inhibitors were injected prior to the learning process intraperitoneally (i.p.) 10 mg/kg.
(§4) Aversion index—the aversion index is calculated by the following equation [(total water ingested/(novel taste liquid ingested+water ingested))*100].
Conditioned Taste Aversion (CTA)—Two groups of rats were deprived from water for a period of 24 hours. This was followed by 3 days of restriction were the rats received two pipettes each filled with 10 ml of water for 20 minutes each day. […] Forty minutes following the exposure to the novel liquid the rats in the experimental group received an injection of LiCl (prepared in double distilled water (DDW)) (2% bodyweight, intraperitoneally (i.p.)) and those in the control received an injection of physiological saline (2% bodyweight, i.p.).
M&M—We used three groups in this experiment, all of which were subjected to three days of water restriction. Following the three day water restriction period one group was injected with the vehicle; one group with S29434; one group with S26695. Then, one hour after the injections, all three groups were subjected to the CTA protocol: we gave them access to two pipettes containing 10 ml of 0.5% w/v NaCl each (a novel taste) for 20 minutes (in this experiment NaCl as the novel taste was used since CTA conducted with NaCl leads to a lower AI which prevents a ceiling effect from occurring and allows us to evaluate if the inhibitors generate an increase in learning and therefore a higher AI). […]

rats [2] = assay: LI-CTA protocol: positive taste memory after QR2 inhibitor injection; assay type: in vivo, rat; conditions: n=8; for Aversion index (AI): 0.1% saccharin, inhibitor 10 mg/kg i.p. one hour before pre-exposure, choice test three days after LiCl, mean+/-SEM; for AI compared with vehicle-injected groups (CTA and LI-CTA): Fisher's LSD post-hoc test
Experimental: as §1, §2, §3, §4
Conditioned Taste Aversion (CTA)—Two groups of rats were deprived from water for a period of 24 hours. This was followed by 3 days of restriction were the rats received two pipettes each filled with 10 ml of water for 20 minutes each day. On the fourth day both groups received two pipettes each filled with 10 ml of an unfamiliar tasting liquid, either saccharine (0.1% w/v) or NaCl (0.3% w/v), for 20 minutes. Forty minutes following the exposure to the novel liquid the rats in the experimental group received an injection of LiCl (prepared in double distilled water (DDW)) (2% bodyweight, intraperitoneally (i.p.)) and those in the control received an injection of physiological saline (2% bodyweight, i.p.).
LI-CTA learning paradigm. This paradigm presents the animal with a novel taste. The animal is then given 48 hours during which it will form a memory of the taste and will consider the taste to be a safe taste. The animal will then be presented with the taste again and then injected with LiCl in order to induce malaise. Normally when an animal is presented with a taste and then has malaise induced (CTA) the animal will form a very high aversion to that taste. […]

Row | Compound | QR2 inhibition (QR2) | AI compared with vehicle-injected group (rats [1]) | Aversion index (AI) (rats [1]) | Aversion index (AI) (rats [2]) | AI compared with vehicle-injected groups (CTA and LI-CTA) (rats [2])
1 | COc1ccc2[nH]cc(CCNC(C)=O)c2c1 [Melatonin] | inhibits QR2 activity | – | – | – | –
2 | CNS(=O)(=O)c1ccc2cccc(CCNC(C)=O)c2c1 [S26695, N-[2-(7-methylaminosulfonyl-1-naphthyl)ethyl]acetamide] | – | significantly higher AI | 86.84+/−2.17 | 68.44+/−4.44 | significantly lower AI
3 | COc1ccc2c(n1)c(CCNC(=O)c1ccco1)c1n2Cc2cccnc2-1 [S29434, N-[2-(2-methoxy-6h-dipyrido[2,3-α:3,2-e]pyrrolizin-11-yl)ethyl]-2-furamide] | – | significantly higher AI | 92% | 56.16+/−6.15 | significantly lower AI
4 | Oc1ccc(/C=C/c2cc(O)cc(O)c2)cc1 [resveratrol] | efficiently inhibits QR2 | – | – | – | –
